Legend:
[1] = tested on: cyclin D1, cyclin D2, cyclin D3, CDK4 and CDK6; assay: Immunoblotting of cyclin D and CDK4/6 protein levels in BT-549 cells; format: cell-based; conditions: indicated concentrations, 16 hours
Protocol: (§1) Calu-1 (FIG. 2A) or BT-549 (FIG. 2B) cells were treated with CPD-002, CPD-004, or palbociclib at indicated concentrations for 16 hours.
(§2) Cultured cells were washed with cold PBS once and lysed in cold RIPA buffer supplemented with protease inhibitors and phosphatase inhibitors (Beyotime Biotechnology). The solutions were then incubated at 4° C. for 30 min with gentle agitation to fully lysed cells. Cell lysates were centrifuged at 13,000 rpm for 10 min at 4° C. and pellets were discarded. Total protein concentrations in the lysates were determined following BCA assays (Beyotime Biotechnology). Cell lysates were mixed with Laemmli loading buffer and heated at 99° C. for 5 min. Proteins were resolved on SDS-PAGE and visualized using Western ECL Substrate kits on a ChemiDoc MP Imaging system (Bio-Rad). Protein bands were quantitated using the Image Lab software provided by Bio-Rad.

[2] = tested on: Rb phosphorylation, cleaved caspase-3; assay: Immunoblotting of downstream Rb phosphorylation and cleaved caspase-3 in Calu-1 or BT-549 cells; format: cell-based; conditions: 16 hours
Protocol: as §1, §2

DDB1 = target: T1, DDB1 (Homo sapiens, UniProt Q16531, D705G/DEL396-460/DEL463-701/I704S/T703N); assay: Surface plasmon resonance (SPR) binding of heterobifunctional compounds to DDB1; conditions: purified DDB1ΔBPB immobilized on CM5 chip, multi-cycle kinetic format, steady state model, read-out: binding affinities (Kd) to DDB1
T1 construct: His6 (N, cleaved yes); TEV protease cleavage site (N, cleaved yes); made in house; host or cells: SF9 insect cells, Bac-to-Bac baculovirus, pFastBacHTB vector
T1 sequence (Q16531 other isoform, or with tags, fused parts or gaps DEL396-460/DEL463-701/T703N/I704S/D705G): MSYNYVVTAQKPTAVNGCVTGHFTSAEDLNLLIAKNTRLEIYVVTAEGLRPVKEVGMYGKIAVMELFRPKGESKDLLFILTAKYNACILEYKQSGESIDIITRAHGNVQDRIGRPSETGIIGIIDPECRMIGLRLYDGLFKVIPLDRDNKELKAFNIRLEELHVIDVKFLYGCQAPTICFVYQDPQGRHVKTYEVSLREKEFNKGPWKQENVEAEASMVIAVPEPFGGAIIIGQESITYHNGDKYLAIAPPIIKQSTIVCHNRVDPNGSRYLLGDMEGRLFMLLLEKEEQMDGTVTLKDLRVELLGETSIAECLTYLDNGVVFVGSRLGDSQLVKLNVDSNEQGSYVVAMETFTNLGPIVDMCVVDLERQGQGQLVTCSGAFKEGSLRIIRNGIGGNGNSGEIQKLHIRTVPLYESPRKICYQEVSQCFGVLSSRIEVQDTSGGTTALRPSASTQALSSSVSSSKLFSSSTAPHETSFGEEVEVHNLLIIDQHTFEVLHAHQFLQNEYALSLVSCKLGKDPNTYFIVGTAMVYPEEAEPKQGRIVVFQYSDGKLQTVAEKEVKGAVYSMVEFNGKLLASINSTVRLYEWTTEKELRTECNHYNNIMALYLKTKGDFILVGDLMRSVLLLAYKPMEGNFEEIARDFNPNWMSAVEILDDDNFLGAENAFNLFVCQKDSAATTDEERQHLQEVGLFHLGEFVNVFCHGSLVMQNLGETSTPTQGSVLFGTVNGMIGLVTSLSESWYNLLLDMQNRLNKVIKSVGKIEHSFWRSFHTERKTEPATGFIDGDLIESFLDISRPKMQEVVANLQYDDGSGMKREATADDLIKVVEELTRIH
Protocol: To determine whether the addition of linkers and target binders to the DDB1 ligands affected the binding to DDB1 E3 ligase, the binding affinities of heterobifunctional compounds to DDB1 was evaluated using a surface plasmon resonance (SPR) assay. Purified DDB1ΔBPB proteins were immobilized on a CM5 sensor chip and a dose range of compound solutions were injected in multi-cycle kinetic format. Data was fit to steady state model and gave equivalent dissociation constants (Kd).

Row | Compound | cyclin D1, cyclin D2, cyclin D3, CDK4 and CDK6 protein levels [1] | downstream Rb phosphorylation and cleaved caspase-3 [2] | Kd (DDB1) [µM]
1 | CC(=O)c1c(C)c2cnc(Nc3ccc(N4CCN(CC(=O)NCCOCCOCCOCCOCCOCCNc5ccc(C(=O)Nc6ncc(C)s6)c(C)c5)CC4)cn3)nc2n(C2CCCC2)c1=O [CPD-002, 4-((1-(4-(6-((6-Acetyl-8-cyclopentyl-5-methyl-7-oxo-7,8-dihydropyrido[2,3-d]pyrimidin-2-yl)amino)pyridin-3-yl)piperazin-1-yl)-2-oxo-6,9,12,15,18-pentaoxa-3-azaicosan-20-yl)amino)-2-methyl-N-(5-methylthiazol-2-yl)benzamide] | reduced cyclin D1, cyclin D2, cyclin D3, CDK4 and CDK6 protein levels in a concentration-dependent manner | inhibited downstream Rb phosphorylation and induced cleaved caspase-3 in a concentration-dependent manner | 
2 | CC(=O)c1c(C)c2cnc(Nc3ccc(N4CCN(CC(=O)NCCOCCOCCOCCOCCOCCNc5ccc(C(=O)Nc6nc(C)c(C)s6)c(C)c5)CC4)cn3)nc2n(C2CCCC2)c1=O [CPD-031, 4-((1-(4-(6-((6-Acetyl-8-cyclopentyl-5-methyl-7-oxo-7,8-dihydropyrido[2,3-d]pyrimidin-2-yl)amino)pyridin-3-yl)piperazin-1-yl)-2-oxo-6,9,12,15,18-pentaoxa-3-azaicosan-20-yl)amino)-N-(4,5-dimethylthiazol-2-yl)-2-methylbenzamide] |  |  | 5.7
